Assays:
[1] = system: Pseudomonas aeruginosa (P. aeruginosa) CCM 1959; assay: Antimicrobial activity, macrodilution method (growth by A590); format: cell-based; details: Pseudomonas aeruginosa, CCM1959; Bacteria; MHB, 37 °C; DMSO max 1.0 vol. %; read-out: IC50 P. aeruginosa
Protocol: (§1) The antimicrobial activities of gallium(III) complexes GaPic, GaDpic, GaChel, GaCldpic, free ligands (HPic, H2Dpic, H2Chel, H2Cldpic) and positive controls (cefoxitin (C), ampicillin (A) and piperacillin (P)) were evaluated by macrodilution method using G^+ bacteria (Firmicutes) Staphylococcus aureus (S. aureus) CCM 3953 (Czech Collection of Microorganisms), G^− bacteria (γ-proteobacteria) Escherichia coli (E. coli) CCM 3988, Pseudomonas aeruginosa (P. aeruginosa) CCM 1959 (Czech Collection of Microorganisms) and the yeast Candida parapsilosis (C. parapsilosis) ATCC 22019 (American type culture collection). Cultures of bacteria (in Mueller–Hinton broth, MHB) and yeasts (in Sabouraud’s growth medium, SB) were incubated under shaking (250 rpm) at 37 °C. The growth of bacteria and yeasts was evaluated by measuring the absorbance of the growing cultures (A590) until the cultures reached the stationary growth phase. The effects of gallium(III) complexes on the growth of filamentous fungi Rhizopus oryzae (R. oryzae) CCM F-8284, Alternaria alternata (A. alternata) CCM F-128 and Microsporum gypseum (M. gypseum) CCM F-8342 (Czech Collection of Microorganisms) were observed by macrodilution method on solidified potato-dextrose growth medium (PDA). During culturing, the diameters of growing fungal colonies were measured at regular intervals. Briefly, the antimicrobial activity (bacteria and yeasts) gallium(III) complexes/ ligands were added to the microbial culture at the beginning of the cultivation-to the lag phase. Pure gallium(III) complexes/ligands were dissolved in DMSO. The final concentration of DMSO never exceeded 1.0 vol. % neither in control nor treated samples. Concentration of gallium(III) complexes used in experimental work for evaluation of antimicrobial activity was used in the range of 0.05–2 mM, for the free ligands in the range of 0.5–2.0 mM in all experiments. […] The IC50 values were evaluated from toxicity curves. All the obtained results of antimicrobial activity were compared to the activity of Ga(NO3)3.

[2] = system: Staphylococcus aureus (S. aureus) CCM 3953; assay: as above; format: cell-based; details: Staphylococcus aureus, CCM3953; Bacteria; MHB, 37 °C; DMSO max 1.0 vol. %; read-out: IC50 S. aureus
Protocol: as §1

[3] = system: Escherichia coli (E. coli) CCM 3988; assay: as above; format: cell-based; details: Escherichia coli, CCM3988; Bacteria; MHB, 37 °C; DMSO max 1.0 vol. %; read-out: IC50 E. coli
Protocol: as §1

in vitro = details: human
Protocol: (§2) Cell culture the cell lines A2058 (human metastatic melanoma), BLM (human metastatic melanoma), HCT116 (human colorectal carcinoma), HeLa (human cervical adenocarcinoma), Jurkat (human leukaemic T cell lymphoma). […] Cells were maintained in standard conditions with an atmosphere containing 5% CO2 at 37 °C.
(§3) The antiproliferative activity of Ga(III) complexes GaPic, GaDpic, GaChel, GaCldpic, free ligands (HPic, H2Dpic, H2Chel, H2Cldpic) and cisplatin (cisPt) were evaluated by colorimetric microculture MTS (3-(4,5-dimethylthiazol-2-yl)-5-(3-carboxymethoxyphenyl)-2-(4-sulfophenyl)-2H tetrazolium) assay (Promega, Madison, WI, USA). Cancer and non-cancer cells were seeded at density 5 × 10^3 cells/well in 96-well polystyrene microplates. Twenty-four hours after cell seeding, different concentrations (1.0—100.0 µM) of the compounds were tested. After 72 h of incubation, 10 µL of MTS was added to each well. After an additional 2 h, cell proliferation was evaluated by measuring of absorbance at wavelength 490 nm using the automated Cytation™ 3 Cell Imaging Multi-Mode Reader (Biotek, Winooski, VT, USA). The absorbance of control wells was taken as 100%, and the results were expressed as a percent of untreated control. IC50 values were calculated from MTS analyses.

[4] = system: Alternaria alternata (A. alternata) CCM F-128; assay: Growth of filamentous fungi, macrodilution method on solidified PDA (colony diameter); format: cell-based; details: Alternaria alternata; Filamentous fungi; solidified potato-dextrose growth medium; read-out: IC50 A. alternata
Protocol: as §1

[5] = system: Microsporum gypseum (M. gypseum) CCM F-8342; assay: as above; format: cell-based; details: Nannizzia gypsea; Filamentous fungi; solidified potato-dextrose growth medium; read-out: IC50 M. gypseum
Protocol: as §1

[6] = system: Rhizopus oryzae (R. oryzae) CCM F-8284; assay: as above; format: cell-based; details: Rhizopus arrhizus; solidified potato-dextrose growth medium; read-out: IC50 R. oryzae
Protocol: as §1

[7] = system: Candida parapsilosis (C. parapsilosis) ATCC 22019; assay: Antimicrobial activity, macrodilution method (yeast, growth by A590); format: cell-based; details: Lodderomyces parapsilosis, ATCC22019; Yeast; Sabouraud's growth medium, 37 °C; read-out: IC50 C. parapsilosis
Protocol: as §1

[8] = system: Jurkat (human leukaemic T cell lymphoma); assay: MTS antiproliferative assay; details: Homo sapiens, Jurkat, 72 h, read-out: Cytotoxic activity IC50 Jurkat
Protocol: as §2, §3

[9] = system: PaTu 8902 (human pancreatic adenocarcinoma); assay: MTS antiproliferative assay; details: Homo sapiens, PaTu 8902, 72 h, read-out: Cytotoxic activity IC50 PaTu 8902
Protocol: as §2, §3

[10] = system: MDA-MB-231 (human mammary gland adenocarcinoma); assay: MTS antiproliferative assay; details: Homo sapiens, MDA-MB-231, 72 h, read-out: Cytotoxic activity IC50 MDA-MB-231
Protocol: as §2, §3

[11] = system: HCT116 (human colorectal carcinoma); assay: MTS antiproliferative assay; details: Homo sapiens, HCT-116, 72 h, read-out: Cytotoxic activity IC50 HCT116
Protocol: as §2, §3

[12] = system: A2058 (human metastatic melanoma); assay: MTS antiproliferative assay; details: Homo sapiens, A2058, 72 h, read-out: Cytotoxic activity IC50 A2058
Protocol: as §2, §3

[13] = system: HeLa (human cervical adenocarcinoma); assay: MTS antiproliferative assay; details: Homo sapiens, HeLa, 72 h, read-out: Cytotoxic activity IC50 HeLa
Protocol: as §2, §3

any model microorganism = assay: Antimicrobial activity, macrodilution method, all model microorganisms together; format: cell-based; details: free ligands, range 0.5–2.0 mM
Protocol: as §1, with “Cultures” for “The antimicrobial activities of gallium(III) complexes GaPic, GaDpic, GaChel, GaCldpic, free ligands (HPic, H2Dpic, H2Chel, H2Cldpic) and positive controls (cefoxitin (C), ampicillin (A) and piperacillin (P)) were evaluated by macrodilution method using G^+ bacteria (Firmicutes) Staphylococcus aureus (S. aureus) CCM 3953 (Czech Collection of Microorganisms), G^− bacteria (γ-proteobacteria) Escherichia coli (E. coli) CCM 3988, Pseudomonas aeruginosa (P. aeruginosa) CCM 1959 (Czech Collection of Microorganisms) and the yeast Candida parapsilosis (C. parapsilosis) ATCC 22019 (American type culture collection). Cultures”

[14] = system: cancer cell lines (A2780, MDA-MB-231, HCT116); parameters: method as in PMID 32354569; details: cited from earlier work

SMILES	IC50 [1]	IC50 [2]	IC50 [3]	IC50 at 72 h (in vitro)	IC50 [4]	IC50 [5]	IC50 [6]	IC50 [7]	IC50 [8]	IC50 [9]	IC50 [10]	IC50 [11]	IC50 [12]	IC50 [13]	effect on the growth of any model microorganism (any model microorganism)	IC50 at 72 h (in vitro; human dermal fibroblasts (HDF))	activity of the Ga(III) complex relative to the activity of H-ClQ [14]
O=C(O)c1cc(O)cc(C(=O)O)n1 [H2Chel, chelidamic acid]	> 500 µM	> 500 µM	> 500 µM	> 200 µM	> 500 µM	> 500 µM	> 500 µM	> 500 µM	> 200 µM	> 200 µM	> 200 µM	> 200 µM	> 200 µM	> 200 µM	did not affect the growth		
O=C(O)c1cc(Cl)cc(C(=O)O)n1 [H2Cldpic, 4-chlorodipicolinic acid]	> 500 µM	> 500 µM	> 500 µM		> 500 µM	> 500 µM	> 500 µM	> 500 µM	> 200 µM	> 200 µM	> 200 µM	> 200 µM	> 200 µM	> 200 µM	did not affect the growth	> 200 µM	
CO.[Ga+3].[O-]c1ccc(Cl)c2cccnc12.[O-]c1ccc(Cl)c2cccnc12.[O-]c1ccc(Cl)c2cccnc12 [[Ga(ClQ)3]⋅MeOH]																	at least 2.5 times
